US10787423B2, “Piperazine and piperidine derivatives, their synthesis and use thereof in inhibiting VDAC oligomerization, apoptosis and mitochondria dysfunction” (THE NATIONAL INSTITUTE FOR BIOTECHNOLOGY IN THE NEGEV LTD., priority 2015, dated 2020)
Read-outs that look alike come from different tables or passages of the source.

Tests used:
[1] = 6-hydroxydopamine-induced cell toxicity, XTT cell viability; assay type: cell-based; conditions: human, 24 h, read-out: decrease in cell viability
Experimental: (§1) SHSY5Y (obtained from ATCC) were grown at 37° C. under an atmosphere of 95% air and 5% CO2 in DMEM medium supplemented with 10% fetal bovine serum, 2 mM L-glutamine, 1000 U/ml penicillin, and 1 mg/ml streptomycin until 60-70% of confluence. Further, the cells were incubated with increasing concentrations of 6-hydroxydopamine. After 24 hours, and cells viability was assayed using the XTT (2,3-bis-(2-methoxy-4-nitro-5-sulfophenyl)-2H-tetrazolium-5-carboxanilide) method, according to the supplier instructions. […] The 50% decrease in cell survival was obtained at about 50 μM of 6-hydroxydopamine.
(§2) Cell viability as assayed following 24 h incubation with different concentrations of 6-hydroxydopamine in the absence (closed squares (▪)) or in the presence of VBIT-12 (15 μM, closed circles (●)) is shown.
(§3) Similarly, cells that were incubated with increasing concentrations of VBIT-12 in presence of either 30 or 50 μM of 6-hydroxydopamine that decreased cell viability by […], respectively, remained viable after 24 hours of the incubation. Cells viability is charted in FIG. 24C versus the concentrations of VBIT-12. Closed squares (▪) indicate control group without 6-hydroxydopamine, open circles (◯) indicates cells' viability when exposed to 30 μM of the 6-hydroxydopamine, and closed circles (●) indicate cells viability at 50 μM of the 6-hydroxydopamine.

SHSY5Y cells = test: as above; assay type: cell-based; conditions: Homo sapiens, SH-SY5Y, 24 h, read-out: concentration giving 50% decrease in cell survival
Experimental: as §1, §2, §3

HEK-293 cells = test: Selenite-induced apoptosis, annexin V-FITC/PI staining and FACS, HEK-293 cells; assay type: cell-based; conditions: Homo sapiens, HEK293, compound 2 h then selenite 15 μM 4 h, means±SD (n=3)
Experimental: The ability of the compounds of general Formulae (I), (Ia), (Ib), (Ic), (Id), (II) and (IIa) to inhibit apoptosis may be analyzed by annexin-V/propidium iodide (PI) staining and flow cytometry.
Cells, e.g. HeLa cells (2×10^5), untreated or treated with apoptosis-inducing reagents, were analyzed for apoptotic cell death using PI, annexin V-FITC and flow cytometer analysis. Cells were collected (1500×g for 10 min), washed, and resuspended in 200 μl binding buffer (10 mM HEPES/NaOH, pH 7.4, 140 mM NaCl, and 2.5 mM CaCl2). Annexin V-FITC was added according to the recommended Protocol (Enzo Life Sciences, Switzerland), and the cells were incubated in the dark for 15 min. Cells were then washed with binding buffer and resuspended in 200 μl binding buffer, to which PI was added immediately before flow cytometry analysis. At least 10,000 events were collected, recorded on a dot plot, and analyzed by the FACSCalibur™ flow cytometer software (BD Biosciences, Franklin Lakes, N.J.).
b. Additionally, the inhibition of selenite-induced apoptosis by the compounds as analyzed using annexin V-FITC/PI staining and FACS, presented in the FIG. 15c.
(§4) d. IC50 values of the tested compounds were derived from the obtained data. The results shown correspond to means±SD (n=3).

VDAC1 = VDAC1 (Homo sapiens, UniProt P21796); test: Selenite-induced VDAC1 oligomerization by EGS cross-linking and immunoblot in HEK-293 cells (Method B); assay type: cell-based; design: endogenous in cells; host or cells: HEK-293
Chain of VDAC1 (P21796 whole entry): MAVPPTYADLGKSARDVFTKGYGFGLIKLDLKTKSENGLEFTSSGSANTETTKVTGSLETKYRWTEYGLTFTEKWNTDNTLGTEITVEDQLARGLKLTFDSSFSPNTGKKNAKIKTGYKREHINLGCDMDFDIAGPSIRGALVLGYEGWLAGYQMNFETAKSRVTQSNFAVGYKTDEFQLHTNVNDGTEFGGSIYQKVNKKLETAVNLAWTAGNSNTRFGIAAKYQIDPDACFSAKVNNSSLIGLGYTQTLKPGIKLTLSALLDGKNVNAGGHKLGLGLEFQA
Experimental: Appropriate test cells (2.5-3 mg/ml) in PBS, were harvested after the treatment and incubated with the cross-linking reagent EGS at a ratio of 100-300 μM for sample of 2-3 mg protein/ml concentration (pH 8.3) for 15 minutes. Protein concentration was determined according to Lowry assay. Samples (60-80 μg protein) were subjected to SDS-PAGE by a standard technique and immunoblotting was performed using anti-VDAC1 antibodies. Gels were electro-transferred onto nitrocellulose membranes for immuno-staining. The membranes were incubated with a blocking solution containing 5% non-fat dry milk and 0.1% Tween-20 in Tris-buffered saline, followed by incubation with monoclonal anti-VDAC1, anti-Cytochrome c, anti-AIF or anti-actin antibodies. Membranes were then incubated with HRP-conjugated anti-mouse or anti-rabbit IgG (1:10,000), serving as secondary antibodies. Antibody labeling was detected by chemiluminescence. To detect VDAC1 oligomers, membranes were treated with 0.1 M glycine, pH 2.0, prior to immunoblotting and washed several times with 0.1% Tween-20 in Tris-buffered saline. Quantitative analysis of immuno-reactive VDAC1 dimer, trimer and multimer bands was performed using FUSION-FX (Vilber Lourmat, France).
The closed circle (●) indicates VBIT-4 (compound of Formula 1), the open circle (◯) indicates compound of Formula 10, and an open square (□) indicates VBIT-3 (compound of Formula 2).
as §4

purified VDAC1 = target: T1, purified VDAC1 (Rattus norvegicus, UniProt Q9Z2L0); test: Microscale thermophoresis (MST) binding to purified VDAC1
T1 construct: rat liver mitochondria (5 mg/ml) in 10 mM Tris-HCl, pH 7.2, were incubated with 2% LDAO; from tissue; host or cells: rat liver mitochondria
T1 sequence (Q9Z2L0 whole entry): as the sequence (P21796 whole entry) above, with T55N, M129V, A160S, I227V counted along it
Experimental: To obtain quantitative parameters of this interaction and derive a dissociation constant, e.g. a microscale thermophoresis (MST) interaction assay may be performed. In this manner, dissociation values are derived from the curves showing the affinity of the compounds of the invention to VDAC.
Briefly, rat liver mitochondria (5 mg/ml) in 10 mM Tris-HCl, pH 7.2, were incubated with 2% LDAO at 0° C. for 20 min, followed by centrifugation (30 min, 14,000 g) and the obtained supernatant was loaded onto a dry celite:hydroxyapatite (2:1) column. VDAC1 was eluted with a solution containing 2% LDAO, 10 mM Tris-HCl, pH 7.2, 50 mM NaCl, and 20 to 22 mM NaH2PO4, with VDAC1 detection by Coomassie blue staining. The VDAC1-containing fractions were dialyzed against 10 mM Tris-HCl, pH 7.2, and subjected to a second chromatography step on a carboxymethyl-cellulose (CMC) column from which VDAC1 was eluted with a solution containing 10 mM Tris-HCl, pH 7.2, 0.1% LDAO and 500 mM NaCl, detected as above. The VDAC1-containing fractions were collected and used for VDAC1 channel conductance and MST assays.
MST analysis was performed using a NanoTemper Monolith NT.115 apparatus. […]
Purified VDAC1 (133 nM), labeled using the NanoTemper fluorescent protein-labeling Kit BLUE (Nano Temper technologies, Munich, Germany), according to the manufactory instructions, was incubated with increasing concentrations of the following tested compounds: compound of Formula 10 (AKOS-022), compound of Formula 2 (VBIT-3), or racemic compound of Formula 1 (VBIT-4). After 20 min of incubation, the samples (3-5 μL) were loaded into MST-grade glass capillaries (Monolith NT Capillaries), and the thermophoresis process was measured using the Monolith-NT115 apparatus.
Fmax and Fmin represent the maximal and minimal fluorescence, respectively and F the fluorescence measured in the presence of the tested compound.
VDAC1 binding affinities of tested compounds were calculated from the MST measurements.

[2] = system: Cyto c release from mitochondria; test: Selenite-induced Cytochrome c release from mitochondria in HEK-293 cells; assay type: cell-based; conditions: Homo sapiens, HEK293, compound 2 h then selenite 15 μM 4 h, means±SD (n=3)
Experimental: One of the ways cell apoptosis is activated is by release of Cytochrome c (Cyto c) from the mitochondria into cytosol. […] Cyto c released to the cytosol may be analyzed by immunoblotting using Cyto c-specific antibodies.
Cells treated with apoptosis inducers in the absence or presence of the tested compounds were harvested, washed twice with PBS, pH 7.4 and gently resuspended at 6 mg/ml in ice-cold buffer (100 mM KCl, 2.5 mM MgCl2, 250 mM sucrose, 20 mM HEPES/KOH pH 7.5, 0.2 mM EDTA, 1 mM dithiothreitol, 1 μg/ml leupeptin, […] and 0.1 mM PMSF) containing 0.025% digitonin and incubated for 10 min on ice. Samples were centrifuged at 10,000×g (relative centrifugal force—RCF) at 4° C. for 5 min to obtain supernatants (cytosolic extracts free of mitochondria) and pellet (fraction that contains mitochondria). Cytochrome c released to the cytosol was analyzed by immunoblotting using Cytochrome c-specific antibodies. Anti-VDAC1 and anti-GAPDH antibodies were used to verify that the cytosolic extracts are mitochondria-free.
c. Cytochrome c (Cyto c) release was determined as described above in Methods (Cytochrome c release from mitochondria). Briefly, to assess Cyto c release, cells were incubated on ice for 10 min with 0.025% digitonin, centrifuged, and the pellet (mitochondria—Mito) and supernatants (cytosol—Cytos) were subjected to SDS-PAGE and immunoblotting, using anti-Cyto c, antibodies. Anti-VDAC1 and anti-GAPDH antibodies were used to verify that the cytosolic extracts are mitochondria-free. The results of Cyto c release from the mitochondria as induced by selenite are presented as immunoblots, with the cytosolic and mitochondrial fractions confirmed by immunoblotting of GAPDH (glyceraldehyde-3-phosphate dehydrogenase) and VDAC1, respectively, in the FIG. 15d. The data are presented as percent inhibition. The results shown correspond to means±SD (n=3). The closed circle (●) indicates VBIT-4 (compound of Formula 1), the open circle (◯) indicates compound of Formula 10 (AKOS-022), and an open square (□) indicates VBIT-3 (compound of Formula 2).
d. […]

[3] = Brain penetration after oral gavage, HPLC/MS of brain extracts; assay type: in vivo, C57BL/6 mice; conditions: for concentration at 12 h / concentration at 24 h: C57BL/6, mouse, brain, oral, 50 mg/kg, mouse, read-out: Compounds in brain extract
Experimental: C57BL/6 mice ([…]) were used. The animals received treatments with either free compounds of Formulae 1 and 10, or encapsulated compounds, prepared according to the Examples 16 and 17. Doses as indicated in the Table 4 below were administered in phosphate-buffered saline (PBS) through an oral gavage. After 12 hours and 24 hours, randomly selected mice from each group were sacrificed, their brains collected and stored in −80° C. The concentrations of the compounds in the tissues were determined by HPLC/MS analysis.
Tissue samples were homogenized in phosphate-buffered saline solution, then diluted with acetonitrile to 50% v/v, centrifuged at 10,000 g for 10 minutes, and supernatants were analyzed. The compounds concentrations in the brain extracts were determined from calibration curves. The results were the averaged from 2 mice for each treatment group/time point.

[4] = IC50 for several activities / effective range (activity not specified); conditions: quoted for comparison with brain levels
[5] = 50 mg/kg in PLGA nanoparticles, oral gavage
[6] = 50 mg/kg oral gavage, free compound

SMILES | cytotoxicity at 24 h, 30 μM ([1]; 30 μM 6-hydroxydopamine) | cytotoxicity at 24 h, 50 μM ([1]; 50 μM 6-hydroxydopamine) | 6-hydroxydopamine concentration giving 50% decrease in cell survival (SHSY5Y cells) | IC50 (HEK-293 cells) | IC50 (VDAC1; HEK-293 cells, compound 2 h then selenite 15 μM 4 h, means±SD (n=3), read-out: VDAC1 oligomerization IC50) | Kd (purified VDAC1; MST, purified VDAC1 133 nM, 20 min incubation, means±SD (n=3), read-out: VDAC1 binding affinities) | IC50 [2] | concentration at 12 h [3, 5] | concentration at 24 h [3, 5] | concentration at 12 h [3, 6] | concentration at 24 h [3, 6] | brain penetration ([3]; given orally, in solution or encapsulated in PLGA nano-particles) | IC50 (VDAC1) | Kd (purified VDAC1) | IC50 [4]
NCCc1cc(O)c(O)cc1O [6-hydroxydopamine, reference compound] | 90% | 95% | ~50 µM | – | – | – | – | – | – | – | – | – | – | – | –
O=C1CC(N2CCN(c3ccc(OC(F)(F)F)cc3)CC2)C(=O)N1c1ccc(Cl)cc1 (centres unmarked) [Formula 2, 1-(4-chlorophenyl)-3-(4-(4-(trifluoromethoxy)phenyl)piperazin-1-yl)pyrrolidine-2,5-dione] | – | – | – | 7.5 ± 0.27 µM | 8.8 ± 0.56 µM | 31.3 ± 1.7 µM | 6.6 ± 1.03 µM | – | – | – | – | – | – | – | –
O=C1CC(N2CCC(Nc3ccc(OC(F)(F)F)cc3)CC2)C(=O)N1c1ccc(Cl)cc1 (centres unmarked) [Formula 10] | – | – | – | 3.4 ± 0.2 µM | – | – | 3.6 ± 0.4 µM | 4.36 ± 0.148 µM | 2.8 ± 1.19 µM | 4.2 ± 0.714 µM | 1.24 ± 0.23 µM | reached the brain | 3.3 ± 0.18 µM | 15.4 ± 2.9 µM | 1 µM
